The IC50 is the concentration needed to halve the response being measured.

human HPK1 (MAP4K1), sequence (Q92918 17-274): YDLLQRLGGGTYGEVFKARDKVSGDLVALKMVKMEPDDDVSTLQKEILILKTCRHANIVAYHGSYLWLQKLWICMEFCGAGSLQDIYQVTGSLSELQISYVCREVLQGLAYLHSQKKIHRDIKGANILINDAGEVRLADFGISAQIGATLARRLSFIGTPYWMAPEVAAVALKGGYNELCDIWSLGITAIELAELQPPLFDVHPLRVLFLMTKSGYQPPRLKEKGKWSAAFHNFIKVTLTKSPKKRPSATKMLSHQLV

The test deals with human HPK1 (MAP4K1) (Homo sapiens (Human), UniProt Q92918). As to the kind of experiment: HPK1 IC50 Assay (TR-FRET biochemical kinase assay, STK S1 peptide substrate). The settings on record: recombinant human HPK1 kinase domain 0.15 nM, 10 μM ATP, 1 μM STK S1 peptide; geometric mean. The method in brief:
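Pre-activated recombinant kinase domain (insect cells; 0.15 nM) pre-incubated with compounds for 15 min, then 10 μM ATP and 1 μM STK S1 peptide added for 3 h at 25 °C in BES pH 7.0. Phosphorylation read by HTRF (665/620 nm). IC50 from four-parameter fits normalized to staurosporine/DMSO controls, geometric mean of repeats.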
(Time-resolved FRET reads energy transfer from a long-lived donor to a nearby acceptor.)
As to `CC(C)n1cnc2cc(-c3ccc4c(c3)N([C@H]3C[C@@H](N5CC6CCC(C6)C5)C3)C(=O)C43CCN(C(=O)C4COC4)CC3)nc(Nc3ccncc3F)c21` [Example 124], the 50% inhibitory concentration (IC50) was 70 pM.
The value for `CC(C)n1cnc2cc(-c3ccc4c(c3)N([C@H]3C[C@@H](N5CC6CCC(C6)C5)C3)C(=O)C43CCN(C(=O)C4CCO4)CC3)nc(Nc3ccncc3F)c21` (some centres unmarked) [Example 125] was 40 pM.
The value for `CC(C)n1cnc2cc(-c3ccc4c(c3)N([C@H]3C[C@@H](N5CC6CCC(C6)C5)C3)C(=O)C43CCN(C(=O)[C@@H](C)O)CC3)nc(Nc3ccncc3F)c21` [Example 126] was 100 pM; that for `CC(C)n1cnc2cc(-c3ccc4c(c3)N([C@H]3C[C@@H](N5CC6CCC(C6)C5)C3)C(=O)C43CCN(C(=O)C(C)(C)CO)CC3)nc(Nc3ccncc3F)c21` [Example 127] was 70 pM.
On to `CC(C)n1cnc2cc(-c3ccc4c(c3)N([C@H]3C[C@@H](N5CC6CCC(C6)C5)C3)C(=O)C43CCN(C(=O)CO)CC3)nc(Nc3ccncc3F)c21` [Example 128], for which the IC50 was found to be 70 pM.
As to `Cc1cc(Nc2nc(-c3ccc4c(c3)N([C@H]3C[C@@H](N5CCCCC5)C3)C(=O)C43CCN(C(=O)C4(C)COC4)CC3)cc3ncn(C(C)C)c23)c(F)cn1` [Example 129], the IC50 came to 600 pM.
The same measure for `CC(C)n1cnc2cc(-c3ccc4c(c3)N([C@H]3C[C@@H](N5CCC(C)(C)C5)C3)C(=O)C43CCN(C(=O)C4(C)COC4)CC3)nc(Nc3cc(Cl)ncc3F)c21` [Example 130]: 1000 pM; for `Cc1cc(Nc2nc(-c3ccc4c(c3)N([C@H]3C[C@@H](N5CCC(C)(C)C5)C3)C(=O)C43CCN(C(=O)C(C)(C)CO)CC3)cc3ncn(C(C)C)c23)c(F)cn1` [Example 131]: 600 pM.
With `Cc1cc(Nc2nc(-c3ccc4c(c3)N([C@H]3C[C@@H](N5CCCCC5)C3)C(=O)C43CCN(C(=O)C(C)(C)CO)CC3)cc3ncn(C(C)C)c23)c(F)cn1` [Example 132], the IC50 worked out at 800 pM.
On to `Cc1cc(Nc2nc(-c3ccc4c(c3)N([C@H]3C[C@@H](N5CCC(C)(C)C5)C3)C(=O)C43CCN(C(=O)C4CCO4)CC3)cc3ncn(C(C)C)c23)c(F)cn1` (some centres unmarked) [Example 133], for which the IC50 came out at 200 pM.
`CC(C)n1cnc2cc(-c3ccc4c(c3)N([C@H]3C[C@@H](N5CCCCC5)C3)C(=O)C43CCN(C(=O)C4(CO)CC4)CC3)nc(Nc3ccncc3F)c21` [Example 134]: the IC50 is 300 pM.
For the compound `CC(C)n1cnc2cc(-c3ccc4c(c3)N([C@H]3C[C@@H](N5CCC(C)(C)C5)C3)C(=O)C43CCN(C(=O)C4(CO)CC4)CC3)nc(Nc3ccncc3F)c21` [Example 135], the IC50 was 400 pM.
Take `CO[C@H]1C[C@@H](C(=O)N2CCC3(CC2)C(=O)N([C@H]2C[C@@H](N4CCCCC4)C2)c2cc(-c4cc5ncn(C(C)C)c5c(Nc5ccncc5F)n4)ccc23)C1` [Example 136, 6-(4-((3-fluoropyridin-4-yl)amino)-3-isopropyl-3H-imidazo[4,5-c]pyridin-6-yl)-1′-((1s,3 S)-3-methoxycyclobutane-1-carbonyl)-1-((1s,3 S)-3-(piperidin-1-yl)cyclobutyl)spiro[indoline-3,4′-piperidin]-2-one]: the 50% inhibitory concentration (IC50) is 500 pM.
On to `CC(C)n1cnc2cc(-c3ccc4c(c3)N([C@H]3C[C@@H](N5CCCCC5)C3)C(=O)C43CCN(C(=O)C4(C(C)C)COC4)CC3)nc(Nc3ccncc3F)c21` [Example 137], for which the IC50 worked out at 80 pM.
On to `CCC1(C(=O)N2CCC3(CC2)C(=O)N([C@H]2C[C@@H](N4CCCCC4)C2)c2cc(-c4cc5ncn(C(C)C)c5c(Nc5ccncc5F)n4)ccc23)COC1` [Example 138], for which the IC50 came out at 200 pM.
The same measure for `CC(C)n1cnc2cc(-c3ccc4c(c3)N([C@H]3C[C@@H](N5CCCCC5)C3)C(=O)C43CCN(C(=O)C(C)(C)CF)CC3)nc(Nc3ccncc3F)c21` [Example 139]: 500 pM; for `COCC(C)(C)C(=O)N1CCC2(CC1)C(=O)N([C@H]1C[C@@H](N3CCCCC3)C1)c1cc(-c3cc4ncn(C(C)C)c4c(Nc4ccncc4F)n3)ccc12` [Example 140]: 300 pM.
In the case of `CC(C)n1cnc2cc(-c3ccc4c(c3)N([C@H]3C[C@@H](N5CCCCC5)C3)C(=O)C43CCN(C(=O)C(C)(C)C#N)CC3)nc(Nc3ccncc3F)c21` [Example 141], the IC50 was 300 pM.
In the case of `CC(C)n1cnc2cc(-c3ccc4c(c3)N([C@H]3C[C@@H](N5CCCCC5)C3)C(=O)C43CCN(C(=O)C4(C#N)CC4)CC3)nc(Nc3ccncc3F)c21` [Example 142], the IC50 was 300 pM.
As for `CC(C)n1cnc2cc(-c3ccc4c(c3)N([C@H]3C[C@@H](N5CCCCC5)C3)C(=O)C43CCN(C(=O)C4CC4)CC3)nc(Nc3ccncc3F)c21` [Example 143], the IC50 came to 300 pM.
Turning to `CC(C)n1cnc2cc(-c3ccc4c(c3)N([C@H]3C[C@@H](N5CCCCC5)C3)C(=O)C43CCN(C(=O)C4COC4)CC3)nc(Nc3ccncc3F)c21` [Example 144], the IC50 is 300 pM.
The value for `COC(C)(C)C(=O)N1CCC2(CC1)C(=O)N([C@H]1C[C@@H](N3CCCCC3)C1)c1cc(-c3cc4ncn(C(C)C)c4c(Nc4ccncc4F)n3)ccc12` [Example 145] was 400 pM; that for `COC1(C(=O)N2CCC3(CC2)C(=O)N([C@H]2C[C@@H](N4CCCCC4)C2)c2cc(-c4cc5ncn(C(C)C)c5c(Nc5ccncc5F)n4)ccc23)CC1` [Example 146] was 300 pM.
The value for `CC(C)n1cnc2cc(-c3ccc4c(c3)N([C@H]3C[C@@H](N5CCCCC5)C3)C(=O)C43CCN(C(=O)C4(C)COC4)CC3)nc(Nc3ccncc3F)c21` [Example 147] was 400 pM; that for `CCn1cnc2cc(-c3ccc4c(c3)N([C@H]3C[C@@H](N5CCCCC5)C3)C(=O)C43CCN(C(=O)C(C)C)CC3)nc(Nc3ccncc3F)c21` [Example 148] was 1300 pM; that for `CC(C)n1cnc2cc(-c3ccc4c(c3)N([C@H]3C[C@@H](N5CCCCC5)C3)C(=O)C43CCN(C(=O)C4(F)CCC4)CC3)nc(Nc3ccncc3F)c21` [Example 149] was 500 pM.
The value for `CC(C)n1cnc2cc(-c3ccc4c(c3)N([C@H]3C[C@@H](N5CCCCC5)C3)C(=O)C43CCN(C(=O)C4(F)CC4)CC3)nc(Nc3ccncc3F)c21` [Example 150] was 500 pM; that for `CCn1cnc2cc(-c3ccc4c(c3)N([C@H]3C[C@@H](N5CCCCC5)C3)C(=O)C43CCN(C(=O)C45CC(F)(C4)C5)CC3)nc(Nc3ccncc3F)c21` [Example 151] was 300 pM; that for `CO[C@@H](C)C(=O)N1CCC2(CC1)C(=O)N([C@H]1C[C@@H](N3CCCCC3)C1)c1cc(-c3cc4ncn(C(C)C)c4c(Nc4ccncc4F)n3)ccc12` [Example 152] was 500 pM.
`CO[C@H](C)C(=O)N1CCC2(CC1)C(=O)N([C@H]1C[C@@H](N3CCCCC3)C1)c1cc(-c3cc4ncn(C(C)C)c4c(Nc4ccncc4F)n3)ccc12` [Example 153]: the IC50 came to 300 pM.
On to `CC(C)n1cnc2cc(-c3ccc4c(c3)N([C@H]3C[C@@H](N5CCC(C)(C)C5)C3)C(=O)C43CCN(C(=O)c4cocn4)CC3)nc(Nc3ccncc3F)c21` [Example 154], for which the IC50 came out at 300 pM.
The same measure for `CC(C)n1cnc2cc(-c3ccc4c(c3)N([C@H]3C[C@@H](N5CCC(C)(C)C5)C3)C(=O)C43CCN(C(=O)c4ccon4)CC3)nc(Nc3ccncc3F)c21` [Example 155]: 300 pM.
